Reference: patent EP2977452A2, “METHODS OF TREATMENT AND PREVENTION OF NEURODEGENERATIVE DISEASES AND DISORDERS” (THOMAS JEFFERSON UNIVERSITY, priority 2007, dated 2008)
Entries after “also recorded” stand apart in the source; their conditions may differ.

Experiments:
Type in all cases: in vivo
[1] = tested on: blood brain barrier (BBB); test: BBB leakage in brain of DM/HC pig model (IHC for pig immunoglobulin); conditions: DM/HC pigs
Protocol: (§1) Animal model: A diabetic/diabetic hypercholestrolemic pig model (DM/HC) was developed that mimics human-like atherosclerosis. Farm pigs weighing 25-30 kg and aged ∼4 months were made diabetic with a single intravenous injection of 125 mg/kg of streptozotocin (Sicor Pharmaceuticals, Irvine, CA). After stabilization for 1-2 weeks, the animals with elevated levels of plasma glucose (>150 mg/dl) were fed with atherogenic (high-fat) diet as shown in Table 1 (Animal Specialties, Quakertown, PA) to achieve a cholesterol level of approximately 250-800 mg/dl. Table 1. Diet for 2.0% cholesterol diet the components are:
(§2) At one month after stabilization of choleresterol at 250-800mg/dl, the animals were randomized into two experimental groups, DM/HC (hyperglycemia and hypercholesterolemia) group with no treatment and treatment group (10 mg/kg/day of SB-480848, also referred to as 1-(N-(2-(diethylamino)ethyl)-N-(4-(4-trifluoromethylphenyl)benzyl)-aminocarbonylmethyl)-2-(4-fluorobenzyl)thio-5,6-trimethylenepyrimidin-4-one). The animals were sacrificed at 6-month after the randomization. The animal protocol has been approved by the Institutional Animal Care and Use Committee of University of Pennsylvania.
(§3) Two diabetic/hypercholesterolemic groups were evaluated: 1. DM/HC group and 2. DM/HC animals receiving Lp-PLA2 inhibitors. The experiments included: the control group (DM/HC group - 17 pigs) and the experimental group (DM/HC animals receiving LP-PLA2 inhibitors - 20 pigs). In addition blood cholesterol levels were maintained between 300 and 800 mg/dl in experimental animals, this range having been determined to provide a better test model. Blood cholesterol levels were monitored in all animals on a bimonthly basis, as shown in Table 4 and adjustments were made to the fat content of the feed accordingly, as shown in Table 2. The cholesterol and lard percent were in the range of 0.5-2% and 10-25%, respectively, and all animals received feed that contained cholesterol and lard concentration within that range. Blood samples were obtained at baseline, 1 month, 3 months, and 6 months. Less than 1 ml/kg of blood were obtained each time. At the bimonthly blood cholesterol levels tests, levels of total cholesterol, LDL, HDL, VLDL and triglycerides, blood glucose, Lp-PLA2 and […] (PBMCs) were tested (see Table 4).
(§4) Daily dosing began on Day 29, at which time each test animal was given a daily dose of 10 mg/kg SB-480848 (given as bolus equivalent in dog food). Animals were NPO from midnight the night before. Animals were euthanized on Day 196 and tissues harvested immediately.
(§5) Brain tissue preparation. The entire brain was removed within one hour after animals were euthanized. The right hemisphere was fixed in 10% formalin for at least one week. […]

Abeta-42 = Abeta-42 accumulation in brain of DM/HC pig model (IHC); conditions: DM/HC pigs
Protocol: as §1, §2, §3, §4, §5

glial cells = test: Glial cell (astrocyte) activation in brain of DM/HC pig model (GFAP IHC); conditions: DM/HC pigs treated with Lp-PLA2 inhibitor, vs non-treated
Protocol: as §1, with “are: […]” for “are:”
Two diabetic/hypercholesterolemic groups were evaluated: 1. […] In addition blood cholesterol levels were maintained between 300 and 800 mg/dl in experimental animals, this range having been determined to provide a better test model. Blood cholesterol levels were monitored in all animals on a bimonthly basis, as shown in Table 4 and adjustments were made to the fat content of the feed accordingly, as shown in Table 2. […]

[2] = Body weight and behaviour observed during the study in DM/HC pig model; conditions: DM/HC pigs
Protocol: as §1, §2, §3
Domestic farm pigs, Yorkshire boars, ranging in weight between 25-35 kg were purchased from a local farm and placed in indoor housing under the care of a veterinarian. They were castrated 3-5 days in advance of the study start date. Test pigs were made diabetic by infusing one dose of streptozocin (125 mg/kg) IV in a period of 30 min. […] The blood glucose was measured using a glucometer every day before feeding for the first 14 days and then once a week. […]

[3] = 10 mg/kg/day SB-480848, n=6, vs DM/HC no treatment, 10 mg/kg/day
[4] = 10 mg/kg/day SB-480848, vs DM/HC no treatment
[5] = during the study period, compared to control non-treated animals

CCN(CC)CCN(Cc1ccc(-c2ccc(C(F)(F)F)cc2)cc1)C(=O)Cn1c(SCc2ccc(F)cc2)nc(=O)c2c1CCC2 [Lp-PLA2 inhibitor, 1-(N-(2-(diethylamino)ethyl)-N-(4-(4-trifluoromethylphenyl)benzyl)-aminocarbonylmethyl)-2-(4-fluorobenzyl)thio-5,6-trimethylenepyrimidin-4-one]
BBB leakage [1, 3]: prevents BBB leakage; also recorded: negligible
Ig binding to neurons [1, 4]: no Ig binding to neurons
Ig leakage from blood vessels [1, 4]: no Ig leakage from blood vessels
dendrite collapse [1, 4]: no dendrite collapse
sick neurons (Abeta-42; 10 mg/kg/day SB-480848, compared with non-treated animals): rarely observed
neuronal Abeta-42 immunoreactivity (Abeta-42; [3]): prevents Abeta-42 accumulation in neurons; also recorded: no neuronal Abeta-42 immunoreactivity
Abeta42 accumulation in vascular SMCs (Abeta-42; [4]): prevented Abeta42 accumulation in vascular SMCs
cerebrovascular amyloidosis (arterial Abeta-42 immunostaining) (Abeta-42; 10 mg/kg/day SB-480848, vs DM/HC no treatment, 10 mg/kg/day): little or no arterial Abeta-42 immunostaining; also recorded: minimized cerebrovascular amyloidosis
activation of glial cells (glial cells): less activation of glial cells
weight ([2]; 10 mg/kg/day SB-480848, end of study, from a baseline of 26.9 kg, control animals 50.9 kg (baseline 30.3 kg)): 62.5 kg
activity in the cage [2, 5]: increased activity in the cage
response to feeding and handling [2, 5]: tended to respond more alertly to feeding and handling
responsiveness to external stimuli [2, 5]: more responsive to external stimuli
